# Assay results as given in patent publication US20240115496A1, “A COMPOUND DRY POWDER INHALANT AND USE THEREOF” (TIANJIN UNIVERSITY OF TRADITIONAL CHINESE MEDICINE, priority 2021, published 2024).
# Columns and labels:
# [1] = system: rats having Bleo-induced pulmonary fibrosis; assay: Pulmonary function index assay (EMKA pulmonary function detector); format: in vivo, rat; conditions: day 28, DPI intratracheal or tail i.v. 9 mg/kg, pirfenidone gavage, daily 28 days
# Procedure: (§1) 48 SPF healthy SD male rats (weight of 180-220 g) were randomly divided into 8 groups, 6 rats for each group: (1) normal group (control group): normal rearing in the animal center; (2) sham group: this group was given the same dose of air by pulmonary administration; (3) Bleo model group: 100 μL of Bleo solution with a concentration of 12.5 mg/mL was administered through the tracheal intubation, and the rats were rotated for 5 min after drug administration for use, referred to as the Bleo group or the model group in the present application; (4) Bleo+BA-DPI group: the same modeling method as the Bleo model group was used, and BA-DPI was administered through the tracheal intubation via DP-4 rat dry powder lung drug delivery device (manufacturer: Beijing YSKD Biotechnology Co.) at a dose of 9 mg/kg, 3 mg per day for 28 days; (5) Bleo+AH-DPI group (same method as 4); (6) Bleo+BA/AH-DPI group (same method as 4); (7) Bleo+tail intravenous injection group: the formulation solution was administered by tail intravenous injection at a concentration of 3 mg/ml, 9 mg/kg, for a total of 28 days, starting from the second day after the modeling; (8) Bleo+pirfenidone group: 2 ml per day at a concentration of 11.6 mg/ml was administered by gavage starting from the second day after successful modeling for 28 days.
# Lung DPI dry powder administration operation: DPI powder was weighed precisely and placed in the storage room of the drug delivery device, the DP4 dry powder delivery device was installed, connected to the syringe with 1.5-2 ml of air, the rat was laid on the tracheal intubation platform after anesthesia, the rat laryngoscope was used to expose the tracheal opening, when the tracheal opening was open, the nozzle of the drug delivery device was immediately inserted through the tracheal opening to the bronchial fork, and the air was immediately pushed into the drug delivery device to push DPI fine powder into the rat's lung. The rat in sham group was pushed with 1.5-2 ml of air (not including the drug) as described above.
# Various respiratory indices, including inspiratory duration (Ti), expiratory duration (Te), maximal inspiratory flow (PIF), maximal expiratory flow (PEF), tidal volume (TV), relaxation time (RT), and expiratory volume (EV), in freely moving rats were measured by EMKA pulmonary function detector at the completion of modeling on day 28.
# [2] = system: SOD, MDA, LDH in rat lung tissue; assay: Oxidative stress indicators (SOD, MDA, LDH) in lung tissue homogenates; format: in vivo; conditions: Bleo rats after 28 days, compared with Bleo group
# Procedure: as §1, with “days. […]” for “days.”
# Oxidative stress played an important role in the process of Bleo-induced pulmonary fibrosis. […] Therefore, in the application, SOD was measured in conjunction with MDA in order to observe the role in pulmonary fibrosis. […]
# [3] = system: rats having Bleo-induced pulmonary fibrosis; assay: HE staining of rat lung tissue; format: in vivo; conditions: Bleo rats after 28 days, compared with Bleo model group
# Procedure: as §1, with “days. […]” for “days.”
# [4] = system: rats having Bleo-induced pulmonary fibrosis; assay: Hydroxyproline (Hyp) in lung tissue homogenates by ELISA; format: in vivo, rat; conditions: Bleo rats after 28 days of treatment; Bleo group 118.33, normal 76.43
# Procedure: as §1, with “days. […]” for “days.”
# [5] = system: inflammatory factors IL-4, IL-6, IL-8, and IL-1β in BALF; assay: Inflammatory factors in BALF by ELISA; format: in vivo, rat; conditions: Bleo rats after 28 days, compared with Bleo group
# Procedure: as §1, with “days. […]” for “days.”
# In order to verity whether BA/AH-DPI can regulate the inflammatory process by modulating the secretion of cytokines, the application also measured the concentrations of inflammatory factors IL-4, IL-6, IL-8, and IL-1β in BALF to determine the protective and therapeutic effects of BA/AH-DPI in the pathogenesis of Bleo-induced idiopathic pulmonary fibrosis.
# The above BALF supernatant was measured by enzyme-linked immunosorbent assay (ELISA) to detect the concentration levels of inflammatory factors IL-4, IL-6, IL-8, IL-1β, as well as IFN-γ and TGF-β1. […]
# [6] = system: rats having Bleo-induced pulmonary fibrosis; assay: Body weight changes in rats; format: in vivo, rat; conditions: days 1-28, compared with Bleo group
# Procedure: as §1, with “days. […]” for “days.”
# [7] = system: rats having Bleo-induced pulmonary fibrosis; assay: Total protein in bronchoalveolar lavage fluid (BALF), colorimetric; format: in vivo, rat; conditions: Bleo rats after 28 days of treatment, n = 6; Bleo group 17.04, normal 7.86
# Procedure: as §1, with “days. […]” for “days.”
# MPO = assay: Myeloperoxidase (MPO) level in serum; format: in vivo, rat; conditions: Bleo rats after 28 days, compared with Bleo group
# Procedure: as §1, with “days. […]” for “days.”
# [8] = system: rats having Bleo-induced pulmonary fibrosis; assay: Determination of lung factor in rats; format: in vivo, rat; conditions: Bleo rats after 28 days of treatment, n = 6; Bleo group 9.45, normal 4.09
# Procedure: as §1, with “days. […]” for “days.”
# [9] = Particle size distribution test, laser particle size analyzer, dry dispersion; format: physicochemical
# Procedure: The particle size distribution of DPI dry powder was measured by dry dispersion method using laser particle size analyzer, and Dv10, Dv50, Dv90, VMD (Volume median diameter) and SMD (Sauter mean diameter) were determined, respectively.
structure (smiles),measurement,setting,value
"Cc1ccc(=O)n(-c2ccccc2)c1 [pirfenidone, Pirfenidone]",EV (expiratory volume),[1],1.23 ± 0.30 mL
same,PEF (maximal expiratory flow),[1],10.76 ± 5.93 mL/s
same,PIF (maximal inspiratory flow),[1],12.52 ± 4.68 mL/s
same,RT (relaxation time),[1],158.82 ± 63.19 ms
same,TV (tidal volume),[1],1.22 ± 0.30 mL
same,Te (expiratory duration),[1],265.48 ± 99.45 ms
same,Ti (inspiratory duration),[1],180.56 ± 49.34 ms
same,LDH content in lung tissue,[2],significantly decreased
same,MDA level in lung tissue,[2],significantly decreased
same,SOD antioxidant index in lung tissue,[2],significantly increased
same,Histopathology of lung tissue (HE staining),[3],less fibrotic features and inflammatory infiltration
same,Hyp content in lung tissue,[4],83.40 pg/mL
same,IL-1β level in BALF,[5],significantly lower
same,IL-4 level in BALF,[5],significantly lower
same,IL-8 level in BALF,[5],significantly lower
same,Body weight of rats,[6],significantly different from that in the Bleo group from day 14
same,Total protein concentration in BALF,[7],10.59 ± 1.47 mg/mL
same,MPO activity in serum,MPO,significantly inhibited MPO activity
same,Lung factor,[8],6.15 ± 0.84
"CC(C)C[C@H](N)C(=O)O [L-leu, L-leucine]",D10,[9],9.39 μm
same,D50,[9],50.97 μm
same,D90,[9],84.70 μm
same,SMD (Sauter mean diameter),[9],16.64 μm
same,VMD (Volume median diameter),[9],49.54 μm
same,<3 μm,[9]; fraction of particles,3.80%
same,<5 μm,[9]; fraction of particles,6.08%
